Measurements published in patent publication US20200352912A1, “ANTIMICROBIAL COMPOSITIONS AND METHODS OF USING THE SAME” (The Board Of Supervisors Of Louisiana State University And …, priority 2018, published 2020).

Experiments:
[1] = tested on: S. aureus NRS383; assay: growth inhibition kinetics; type: cell-based, Staphylococcus aureus
Method: Growth of S. aureus NRS383 was monitored for up to 24 h in medium alone or supplemented with DMSO or 50 μg/ml L-161, 982. After 6 h of coincubation, fresh L-161, 982 was added to growth medium (*). Data shown are representative of three independent experiments.
We next investigated the kinetics of growth inhibition kinetics by L-161, 982 against S. aureus and drug stability. The minimum inhibitory concentration (MIC) of L-161, 982 against planktonic S. aureus was 50 μg/ml while the […] was 100 μg/ml. […] To address whether the loss of inhibition was due to drug degradation over time (half-life), or to adaptation of S. aureus cells to L-161, 982, fresh L-161, 982 (50 μg/ml) was added during the co-incubation.

[2] = tested on: dual-species biofilm with C. albicans; assay: biofilm formation on polystyrene (XTT, CFU); type: cell-based, C. albicans and S. aureus
Method: The effect of L-161,982 on biofilm formation was tested. Mono- and dual-species C. albicans and/or S. aureus biofilms were grown on 96-well plates for 24 h with the indicated concentration of L-161, 982. After incubation, metabolic activity of biofilms was quantified by the XTT assay (A) and then biofilms were disrupted to determine live colony forming units (CFU) (B). The results are cumulative of three independent experiments with duplicate samples. Statistics was performed using One-way ANOVA with the Tukey post-hoc test for the XTT assay. The Mann-Whitney U test was used to analyze CFU data. Significance is indicated as follows: ns—not significant, *P<0.05; *** P<0.001. Error bars represent standard deviation.
Following growth as described above, microbes were washed in phosphate-buffered saline (PBS) by centrifugation, counted on a hemocytometer, and adjusted to 2×10^7 CFU/ml in RPMI buffered with MOPS (165 mM). […]
(§1) The XTT reduction assay was used to determine the metabolic activity of biofilms following treatment with L-161, 982 (17). Briefly, wells were washed once in PBS, and plates incubated at 37° C. for 2 h with 200 μl XTT working reagent (0.5 mg/ml XTT and 1 μM Menadione) and the resulting absorbance measured at 490 nm on a microplate spectrophotometer. […]

[3] = tested on: S. aureus pre-formed mono-species biofilm; assay: pre-formed mature biofilm (XTT, CFU); type: cell-based, Staphylococcus aureus
Method: The effect of L-161, 982 on pre-formed mature biofilms was tested. Mono- and dual-species C. albicans and/or S. aureus biofilms were grown on 96-well plates for 24 h before being treated with the indicated concentration of L-161, 982 for a further 24 h. After treatment, metabolic activity of biofilms was quantified by the XTT assay (A) and then biofilms were disrupted to determine live colony forming units (CFU) (B). The results are cumulative of three independent experiments with duplicate samples. Statistics were performed using One-way ANOVA with the Tukey post-hoc test for the XTT assay. The Mann-Whitney U test was used to analyze CFU data. Significance is indicated as follows: ns—not significant, *P<0.05; *** P<0.001. Error bars represent standard deviation.
Following growth as described above, microbes were washed in phosphate-buffered saline (PBS) by centrifugation, counted on a hemocytometer, and adjusted to 2×10^7 CFU/ml in RPMI buffered with MOPS (165 mM). For monomicrobial biofilms, 50 μl of adjusted C. albicans or S. aureus culture was added to each well of a sterile 96-well cell culture polystyrene microtiter plate (1×10^6 CFU per well); to this, 50 μl of sterile RPMI+MOPS was added. For polymicrobial biofilms, 50 μl of each organism was added per well (1×10^6 CFU of each organism per well). Plates were incubated for 24 h at 37° C. to induce biofilm formation. Following confirmation of mature biofilm growth by macro- and microscopic examination, plates were washed once with 200 μl sterile saline and then 200 μl RPMI+MOPS containing L-161, 982 at various concentrations (6.25-200 μg/ml) added to each well. […]
as §1

[4] = tested on: S. aureus; assay: cytoplasmic leakage assay (OD260); type: cell-based, Staphylococcus aureus; conditions: 50 μg/ml
Method: S. aureus was grown shaking at 37° C. in PBS alone, with 50 μg/ml L-161, 982 or with 4 μg/ml Chlorhexidine (positive control). The appearance of nucleic acid in culture supernatants was measured by OD260 at the indicated times. Data are expressed as change in absorbance at 260 nm compared to control (AA260). Data presented is cumulative of two independent experiments.
Cytoplasmic leakage assay. Cytoplasmic leakage assays were performed as previously described with modifications (11). Briefly, S. aureus was cultured to mid-log phase in TSB with shaking at 37° C. Bacteria were then harvested and resuspended in PBS to a concentration of ˜108/ml. Cultures were treated with L-161,982 (50 μg/ml) or Chlorhexidine (4 μg/ml), a positive control, and incubated at 37° C. with shaking. Culture supernatants were monitored over time for cytoplasmic leakage via OD260 measurements using a spectrophotometer (Biomate 3S, Thermo Scientific). For this, aliquots were removed at 0.5, 1, 2, and 3 hours and centrifuged for 5 min at 10,000×g at room temperature to remove cellular debris before taking OD260 measurements. Negative control cultures containing no drug were used to calculate change in absorbance (AA260) at each time point.

[5] = tested on: S. aureus; assay: colony phenotype on agar plates; type: cell-based, Staphylococcus aureus
Description: L-161, 982 inhibits activities associated with the electron transport chain including ATP production. In addition to the sulfonamide group, the chemical structure of L 161, 982 contains a urea group connected to two aryl groups (diarylurea) (FIG. 11). Urea derivatives are commonly used as herbicides, interfering with electron transport (17). […] SCVs typically lack a functional electron transport chain and cannot produce virulence factors such as hemolysins or the antioxidant pigment staphyloxanthin [reviewed in (19)]. […] These defects are all indicative of interruption of electron transport as carotenoid formation as well as toxin production is dependent on an active electron transport (18, 20, 21). During aerobic respiration, the force required for driving ATP synthesis requires a transmembrane electrical potential (membrane potential), which is generated by the electron transport chain.

[6] = biological target: human EP4 receptors (Homo sapiens, UniProt P35408); conditions: cited from earlier work
[7] = biological target: EP1 (Homo sapiens, UniProt P34995); conditions: cited from earlier work
Chain of EP1 (P34995 whole entry): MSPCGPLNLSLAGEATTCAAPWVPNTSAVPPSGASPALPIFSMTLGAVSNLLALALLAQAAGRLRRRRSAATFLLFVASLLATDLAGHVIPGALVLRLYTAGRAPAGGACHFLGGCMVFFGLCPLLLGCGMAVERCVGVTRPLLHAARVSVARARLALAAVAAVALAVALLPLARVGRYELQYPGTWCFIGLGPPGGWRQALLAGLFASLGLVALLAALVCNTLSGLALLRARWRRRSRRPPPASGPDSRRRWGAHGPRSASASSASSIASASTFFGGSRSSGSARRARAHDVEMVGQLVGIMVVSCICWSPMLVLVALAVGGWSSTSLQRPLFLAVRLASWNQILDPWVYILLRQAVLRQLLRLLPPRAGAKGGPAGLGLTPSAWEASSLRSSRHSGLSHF

Chain of human EP4 receptors (P35408 whole entry): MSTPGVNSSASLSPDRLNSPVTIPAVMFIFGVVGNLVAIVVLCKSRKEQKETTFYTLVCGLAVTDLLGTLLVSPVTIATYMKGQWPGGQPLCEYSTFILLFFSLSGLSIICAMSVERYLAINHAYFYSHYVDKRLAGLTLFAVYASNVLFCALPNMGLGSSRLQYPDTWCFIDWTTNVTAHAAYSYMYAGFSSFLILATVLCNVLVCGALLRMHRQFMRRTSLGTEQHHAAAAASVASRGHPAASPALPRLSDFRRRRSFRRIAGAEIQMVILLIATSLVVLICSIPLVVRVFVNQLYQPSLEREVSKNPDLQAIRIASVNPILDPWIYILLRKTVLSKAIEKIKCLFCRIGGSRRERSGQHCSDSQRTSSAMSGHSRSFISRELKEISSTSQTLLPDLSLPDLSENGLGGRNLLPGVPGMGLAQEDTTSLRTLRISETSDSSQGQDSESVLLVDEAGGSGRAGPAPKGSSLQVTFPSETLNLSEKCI

CCCCc1nn(-c2ccccc2C(F)(F)F)c(=O)n1Cc1ccc(-c2ccccc2S(=O)(=O)NC(=O)c2sccc2C)cc1 [L-161, 982, N-[[4′-[[3-Butyl-1,5-dihydro-5-oxo-1-[2-(trifluoromethyl)phenyl]-4H-1,2,4-triazol-4-yl]methyl][1,1′-biphenyl]-2-yl]sulfonyl]-3-methyl-2-thiophenecarboxamide]
inhibition when fresh L-161, 982 is added during co-incubation ([1]; 50 μg/ml, fresh 50 μg/ml after 6 h): maintained inhibition over a 24 h period | duration of inhibitory effect on S. aureus ([1]; at the MIC of 50 μg/ml): ≤ 8 h | inhibitory effect in dual-species biofilm [2]: no inhibitory effect | concentration required to weaken pre-formed mature biofilms [3]: 100 µg/mL | CFUs recovered from pre-formed biofilm ([3]; 100 and 200 μg/ml): no CFUs were recovered | metabolic activity of pre-formed biofilm ([3]; all concentrations tested, 24 h treatment): no significant inhibitory effects | OD260 values of culture supernatants [4]: did not increase | colony phenotype [5]: grew as small colonies | Ki [6]: 0.024 µM | Ki [7]: 17 µM
